Reference: US11116713B2, “Oral care compositions and methods” (priority 2018, dated 2021)

Test system: Streptococcus mutans
Assay: Killing efficacy against Streptococcus mutans in vitro (cfu count after treatment)
Format: cell-based
Settings: inoculum 2.71×10^4 cfu/ml, FIG. 1
Protocol: Because the primary bacterium responsible for dental caries (cavities) is Streptococcus mutans, the killing efficacy of agmatine and EGCG, alone and in combination, was determined against Streptococcus mutans. Killing efficacy was measured in vitro using Streptococcus mutans cells grown in brain heart infusion (BHI) plates for at least 24-48 hours at 37° C. Each experiment was initiated by collecting an individual colony from the BHI plate and growning the colony overnight at 37° C. and 5% CO2 in BHI liquid media. Streptococcus mutans cells were then passaged 2 times in chemically defined media for Streptococcus mutans and grown overnight at 37° C. and 5% CO2. The absorbance at A600 of the culture was measured to determine the bacterial cell concentration of the inoculum. Once the desired bacterial concentration was reached, Streptococcus mutans inoculum was plated on cell culture plates previously prepared with a range of concentrations of EGCG alone, agmatine alone, or EGCG and agmatine in combination. The plates streaked with inoculum were incubated for at least 24 hours at 37° C. and 5% CO2. After incubation, the cells were transferred to sterile tubes, plated on BHI plate using an Autoplate 4000, and incubated for at least 36 hours at 37° C. Colonies were counted and colony forming units (cfu) were calculated as recommended by Autoplate 4000 guide. […]

Row | Structure (SMILES) | bacterial concentration of Streptococcus mutans following treatment (50 μg/ml EGCG alone) | bacterial concentration of Streptococcus mutans following treatment (7.5 mg/ml agmatine alone)
1 | O=C(O[C@@H]1Cc2c(O)cc(O)cc2O[C@@H]1c1cc(O)c(O)c(O)c1)c1cc(O)c(O)c(O)c1 [EGCG, epigallocatechin gallate] | 6.00×10^1 cfu/ml | 
2 | NCCCCN=C(N)N [agmatine, (4-aminobutyl)guanidine] |  | 6.50×10^1 cfu/ml
